Structures can show the parent of a compound that is named as a salt.

The series in a line: Saturation solubility of moxifloxacin hydrochloride in water. The format is physicochemical. Particulars: aqueous solution, room temperature. As for the experimental part: Accordingly, freshly prepared solutions of moxifloxacin with sugars and/or sugar alcohols have, even if they have relatively high iron contents, a sufficient stability against the formation of particles for the period of use of, preferably, up to 12 hours after preparation. Thus, the problem to be solved by the invention can also be overcome by iron-containing solutions for infusion which are used immediately after preparation. Here, it is expedient to use a process in which a pre-formed concentrated aqueous solution of moxifloxacin or a salt thereof and a pre-formed solution of the sugar and/or the sugar alcohols are mixed with one another. […] The concentrated aqueous solution of moxifloxacin id hydrochloride preferably contains from 0.4% (w/v) to 2.4% (w/v) of moxifloxacin (calculated as betaine). […] The active compound concentrate preferably comprises from 1.0 to 2.0% (w/v) of moxifloxacin (calculated as betaine), particularly preferably 2.0% (w/v) of moxifloxacin (calculated as betaine). […]

`COc1c(N2C[C@@H]3CCCN[C@@H]3C2)c(F)cc2c(=O)c(C(=O)O)cn(C3CC3)c12` [moxifloxacin hydrochloride, 1-cyclopropyl-7-([S,S]-2,8-diazabicyclo[4.3.0]non-8-yl)-6-fluoro-1,4-dihydro-8-methoxy-4-oxo-3-quinolonecarboxylic acid]: the saturation solubility entry is given as “about 2.4 % (w/v)”.

For the origin of these results see patent publication US6916484B1, “Aqueous pharmaceutical composition containing moxifloxacin or salts thereof” (Bayer Aktiengesellschaft, priority 1999, dated 2005).
